# “Also recorded” adds a separate entry of the source.
# Columns and labels:
# [1] = tested on: Wnt/β-catenin signalling (TCF/LEF transcription), HEK-293T cells; experiment: pBARLS beta-catenin activated reporter (TCF/LEF transcription) in HEK-293T cells; assay type: cell-based, human; details: for activation of pBARLS reporter in the presence of lithium: 25 μM compound plus lithium 10 mM; for activation of pBAR reporter (FIG. 1B): HEK-293T cells (human); for activation of pBARLS reporter, compound alone (FIG. 3B) / activation of pBARLS reporter in the presence of lithium (FIG. 3B): HEK293T, dose response
# From the text: (§1) To monitor Wnt/β-catenin signalling the beta-catenin activated reporter (BAR) system developed at the laboratory of Randall Moon, University of Washington, Seattle, Wash., was used. The BAR system contains a concatemer of twelve TCF (T-cell factor) response elements separated by unique five nucleotide linkers specifically designed to minimize recombination that can lead to loss of TCF binding sites. This series of TCF response elements is inserted upstream of Promega's minP minimal promoter completing a functional promoter that drives the transcription of firefly luciferase (pBARLS) along with a PGK promoter driving a puromycin selectable maker. These reporters were inserted between the LTRs (long terminal repeats) of a lentiviral transducing plasmid. […] The pfuBARS reporter is identical to their respective parent reporter with the exception that each TCF DNA binding element contains a two-base substitution conferring a non-functional element. The essentially identical nature of the control reporters provides the most optimal experimental control, as well as allowing for identical lentiviral titer production when generated side by side with the responsive reporter.
# (§2) Cells were plated, treated, and the luciferase activity measured in a 384-well plate. The volume of culture media in each well prior to measuring luciferase activity was 40 μL. After incubation with compounds, 10 μL of Promega Firefly luciferase reagent was added using a liquid dispenser and incubated for 10 minutes at room temperature. Total luminescence was read on an Envision (Perkin Elmer) plate reader. Data was expressed relative to baseline of adding DMSO alone.
# [2] = tested on: Wnt/β-catenin signalling (TCF/LEF transcription), HT22 cells; experiment: pBARLS beta-catenin activated reporter (TCF/LEF transcription) in HT22 cells; assay type: cell-based, mouse; details: for activation of pBARLS reporter in the presence of lithium / activation of transcription of pBARLS reporter, compound alone: HT22, 24 hr; for activation of pBARLS reporter in the presence of lithium: 25 μM compound plus lithium 10 mM; for activation of transcription of pBARLS reporter, compound alone: lithium 10 mM, MS-275, CI-994, SAHA 25 μM; for activation of pBAR reporter (FIG. 1B): HT22 cells (mouse)
# From the text: as §1, §2
# GSK-3 = details: from Ring et al. 2003 / Cline et al. 2002, cited from earlier work; for EC50: read-out: half-maximal effective concentration [EC50]
# HDAC1 = target: T1, HDAC1 (Homo sapiens, UniProt Q13547); experiment: Fluorimetric deacetylase assay, HDAC1; assay type: biochemical; details: Class I; avg n = 2 with class-specific substrates
# T1 construct: purchased BPS Biosciences
# T1 sequence (Q13547 whole entry): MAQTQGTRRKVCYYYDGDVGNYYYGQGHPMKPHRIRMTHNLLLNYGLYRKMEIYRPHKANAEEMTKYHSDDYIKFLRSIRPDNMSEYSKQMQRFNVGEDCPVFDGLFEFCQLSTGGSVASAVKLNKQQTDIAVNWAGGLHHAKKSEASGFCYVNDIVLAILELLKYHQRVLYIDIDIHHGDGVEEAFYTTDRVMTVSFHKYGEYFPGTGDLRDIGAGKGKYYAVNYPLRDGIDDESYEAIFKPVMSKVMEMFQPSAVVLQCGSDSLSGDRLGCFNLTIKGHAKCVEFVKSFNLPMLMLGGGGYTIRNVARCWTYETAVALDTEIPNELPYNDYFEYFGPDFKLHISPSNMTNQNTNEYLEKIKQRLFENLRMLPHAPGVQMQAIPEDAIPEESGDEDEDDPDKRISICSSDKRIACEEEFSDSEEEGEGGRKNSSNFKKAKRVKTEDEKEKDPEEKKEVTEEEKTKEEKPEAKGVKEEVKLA
# HDAC5 = target: T2, HDAC5 (Homo sapiens, UniProt Q9UQL6); experiment: Fluorimetric deacetylase assay, HDAC5; assay type: biochemical; details: Class IIa
# T2 construct: purchased BPS Biosciences
# T2 sequence (Q9UQL6 whole entry): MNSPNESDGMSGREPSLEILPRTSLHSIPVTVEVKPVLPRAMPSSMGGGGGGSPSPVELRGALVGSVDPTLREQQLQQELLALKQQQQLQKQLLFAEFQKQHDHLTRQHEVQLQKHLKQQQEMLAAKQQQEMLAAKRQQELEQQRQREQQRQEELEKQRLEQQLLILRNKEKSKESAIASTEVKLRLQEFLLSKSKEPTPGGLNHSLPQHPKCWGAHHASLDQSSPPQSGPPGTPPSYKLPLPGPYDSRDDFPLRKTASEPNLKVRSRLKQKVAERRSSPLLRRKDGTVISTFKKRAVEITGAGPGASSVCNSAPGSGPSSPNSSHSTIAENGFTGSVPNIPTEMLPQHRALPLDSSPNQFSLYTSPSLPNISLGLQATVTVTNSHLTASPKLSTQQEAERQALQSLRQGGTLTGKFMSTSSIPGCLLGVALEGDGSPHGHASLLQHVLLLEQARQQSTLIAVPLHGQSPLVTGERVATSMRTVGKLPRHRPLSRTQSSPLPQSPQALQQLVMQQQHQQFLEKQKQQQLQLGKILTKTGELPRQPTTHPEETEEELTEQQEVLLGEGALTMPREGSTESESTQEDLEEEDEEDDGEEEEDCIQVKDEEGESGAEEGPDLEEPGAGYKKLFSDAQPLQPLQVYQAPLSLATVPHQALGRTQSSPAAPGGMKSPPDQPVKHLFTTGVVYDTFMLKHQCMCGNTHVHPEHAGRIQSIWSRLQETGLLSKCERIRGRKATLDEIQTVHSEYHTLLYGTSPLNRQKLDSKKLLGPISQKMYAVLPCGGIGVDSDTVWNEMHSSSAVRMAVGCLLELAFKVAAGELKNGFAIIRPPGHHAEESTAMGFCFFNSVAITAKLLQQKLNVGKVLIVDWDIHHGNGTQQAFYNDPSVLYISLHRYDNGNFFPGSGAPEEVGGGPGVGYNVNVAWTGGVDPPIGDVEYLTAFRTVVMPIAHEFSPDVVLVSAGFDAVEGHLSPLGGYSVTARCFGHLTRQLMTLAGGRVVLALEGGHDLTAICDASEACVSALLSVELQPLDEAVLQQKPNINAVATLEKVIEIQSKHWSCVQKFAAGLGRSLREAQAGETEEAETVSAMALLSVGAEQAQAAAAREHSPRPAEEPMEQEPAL
# HDAC6 = HDAC6 (Homo sapiens, UniProt Q9UBN7); experiment: Fluorimetric deacetylase assay, HDAC6; assay type: biochemical
# HDAC6, sequence (Q9UBN7 whole entry): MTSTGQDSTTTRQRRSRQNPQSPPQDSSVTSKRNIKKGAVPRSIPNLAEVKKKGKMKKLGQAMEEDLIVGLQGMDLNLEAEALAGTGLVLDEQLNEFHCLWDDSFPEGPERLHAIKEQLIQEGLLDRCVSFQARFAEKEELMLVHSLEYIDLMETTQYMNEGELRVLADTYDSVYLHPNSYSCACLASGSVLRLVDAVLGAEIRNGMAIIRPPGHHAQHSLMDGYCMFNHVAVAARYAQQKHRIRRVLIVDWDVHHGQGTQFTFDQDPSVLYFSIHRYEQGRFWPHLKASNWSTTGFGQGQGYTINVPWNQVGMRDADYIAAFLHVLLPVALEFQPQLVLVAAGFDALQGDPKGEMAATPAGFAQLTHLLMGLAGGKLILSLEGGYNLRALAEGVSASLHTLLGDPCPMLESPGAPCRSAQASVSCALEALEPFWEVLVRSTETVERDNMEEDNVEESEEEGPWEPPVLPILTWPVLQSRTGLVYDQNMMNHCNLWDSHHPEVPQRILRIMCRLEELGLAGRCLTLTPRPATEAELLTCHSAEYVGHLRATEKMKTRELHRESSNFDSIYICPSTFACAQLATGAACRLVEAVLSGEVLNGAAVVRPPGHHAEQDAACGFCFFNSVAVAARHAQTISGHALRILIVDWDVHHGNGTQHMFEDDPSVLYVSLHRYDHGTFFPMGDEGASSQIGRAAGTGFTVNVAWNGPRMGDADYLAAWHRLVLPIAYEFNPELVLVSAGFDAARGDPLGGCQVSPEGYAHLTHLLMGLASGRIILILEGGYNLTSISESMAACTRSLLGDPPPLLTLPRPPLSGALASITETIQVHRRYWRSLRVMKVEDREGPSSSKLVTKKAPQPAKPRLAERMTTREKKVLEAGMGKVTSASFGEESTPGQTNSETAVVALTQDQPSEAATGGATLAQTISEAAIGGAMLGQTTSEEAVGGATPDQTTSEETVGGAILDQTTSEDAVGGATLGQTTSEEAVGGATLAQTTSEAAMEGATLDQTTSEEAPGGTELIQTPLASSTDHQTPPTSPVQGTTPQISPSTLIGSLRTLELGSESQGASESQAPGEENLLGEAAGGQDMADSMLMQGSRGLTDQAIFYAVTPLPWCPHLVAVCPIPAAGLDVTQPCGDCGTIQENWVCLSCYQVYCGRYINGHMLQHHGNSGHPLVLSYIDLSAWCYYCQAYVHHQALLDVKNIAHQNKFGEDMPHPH
# From the text: (§3) To measure the effects of compounds on HDAC activity, a homogenous, fluorimetric deacetylase assay miniaturized to 384-well plate format was used. To perform this assay, a buffered solution containing a recombinant human deacetylase was transferred to a microtiter plate using a robotic plate-filler.
# (§4) Following compound transfer, a second buffered solution was transferred containing trypsin and a class-specific, tripeptide substrate (AcK-AMC) terminating in an acetyl-lysine, which is amide-coupled to 7-amino-4-methylcoumarin (AMC). Following substrate hydrolysis by the deacetylase, trypsin cleaves the terminal amide bond releasing AMC. With an excitation/emission maximum of 350-380/440-460 nm, AMC fluorescence is captured by a multilabel plate reader. For a kinetic version of the assay, fluorescence measurements was recorded every 0.5-5 minutes over 60 minutes. Data were plotted on a well-by-well basis to measure the slope of increasing fluorescence over time, corresponding to enzymatic activity. HDAC enzymes used were commercially-available (BPS Biosciences San Diego, Calif.).
# [3] = tested on: pfuBARS control reporter (non-functional TCF elements), HEK-293T cells
# From the text: as §1, §2
# [4] = tested on: T3, class I and class II HDACs; experiment: In vitro class I and class II HDAC inhibition; assay type: biochemical, human; details: compared with valproate
# T3 construct: other: HDAC1/2/3 together; other: compared with valproate
# From the text: as §3, §4
# [5] = listed as Wnt3a conditioned media
molecule,measurement,setting,value
O=C(CCCCCCC(=O)Nc1ccccc1)NO [SAHA],activation of pBARLS reporter in the presence of lithium,"[1]; HEK-293T, 24 hr",strong synergistic activation of transcription; also recorded: strong synergy
same,activation of pBARLS reporter in the presence of lithium,[2],strong synergistic activation of transcription
same,"activation of transcription of pBARLS reporter, compound alone",[2],unable to activate transcription
O=[N+]([O-])c1ccc(NCCNc2ncc(-c3ncc[nH]3)c(-c3ccc(Cl)cc3Cl)n2)nc1 [CHIR-837],selectivity for GSK-3,GSK-3,"> 5,000 fold"
same,EC50,GSK-3,0.375 µM
CCCC(CCC)C(=O)O [valproate],IC50,HDAC1,27 µM
same,IC50,HDAC5,> 10000 µM
same,IC50,HDAC6,> 10000 µM
Wnt3a,activation of pBAR reporter (FIG. 1B),[1],activation
same,activation of pBAR reporter (FIG. 1B),[1]; [5],capable of responding
same,activation of pBAR reporter (FIG. 1B),[2],activation
same,activation of pBAR reporter (FIG. 1B),[2]; [5],capable of responding
Cc1[nH]c2ccccc2c1CCNCc1ccc(/C=C/C(=O)NO)cc1 [panobinostat],"activation of pBARLS reporter, compound alone (FIG. 3B)","[1]; 24 hr, alone",activation on their own
same,activation of pBARLS reporter in the presence of lithium (FIG. 3B),"[1]; 24 hr, lithium 10 mM",synergistic activation
same,"potency relative to SAHA (dose responses, FIG. 3)",[1]; pBARLS reporter dose response,more potent than SAHA
Nc1ccccc1NC(=O)c1ccc(CNC(=O)OCc2cccnc2)cc1 [MS-275],"activation of pBARLS reporter, compound alone (FIG. 3B)","[1]; 24 hr, alone",activation on their own
same,activation of pBARLS reporter in the presence of lithium (FIG. 3B),"[1]; 24 hr, lithium 10 mM",synergistic activation
same,activation of pBARLS reporter in the presence of lithium,"[1]; HEK-293T, 24 hr",strong synergistic activation of transcription; also recorded: strong synergy
same,"activation of transcription of pBARLS reporter, compound alone","[1]; HEK-293T, 24 hr, lithium 10 mM, MS-275, CI-994, SAHA 25 μM, alone",activated transcription of the reporter; also recorded: activate transcription on their own
same,activation of pBARLS reporter in the presence of lithium,[2],strong synergistic activation of transcription
same,"activation of transcription of pBARLS reporter, compound alone",[2],partially capable of activating transcription; also recorded: capable of activating transcription on its own
same,"activity in pfuBARS control reporter, compound alone",[3],no activity
same,activity in pfuBARS control reporter in the presence of lithium,[3],no activity
CC(=O)Nc1ccc(C(=O)Nc2ccccc2N)cc1 [CI-994],"activity in pfuBARS control reporter, compound alone",[3],no activity
same,activity in pfuBARS control reporter in the presence of lithium,[3],no activity
same,potency on class I HDACs in comparison to valproate,[4],much more potent
